The values below come from paper PMC12040169 (PLOS Biology, 2025).

The nature of this data set: in vitro. The following applies: human, hela cells, % viability.

The term viability denotes a read-out of living cells in per cent, often relative to untreated cells.

With `CCOc1cc(NC2CCN(C(=O)Cc3ccncc3)CC2)ncn1` [CBK304752], the viability at 28.5 h, 10 µM amounted to 101%.
Consider `Cc1noc(C2(O)CCN(CCc3ccc(F)c(F)c3)C2)n1` (stereo not drawn) [CBK304753], for which the viability at 28.5 h, 10 µM was found to be 93.9%.
With `CC1CN(c2cc(CO)c(F)cn2)CC2(CCOC2C)O1` (stereo not drawn) [CBK304754], the viability at 28.5 h, 10 µM worked out at 101%.
The value for `CCOCC1CN(c2cc(CO)c(F)cn2)CCO1` (stereo not drawn) [CBK304756] was 92%; that for `CCC1CN(c2cc(CO)c(F)cn2)CC2(CCOC2)O1` (stereo not drawn) [CBK304757] was 92.9%.
In the case of `CCn1cc(CN2CCCN(C(=O)c3ccc(Cl)cn3)CC2)cn1` [CBK304760] it was 84.3%; in that of `CCCC(=O)N1CCn2c(nnc2-c2cncc(Br)c2)C1` [CBK304761], 93.4%; in that of `Cn1ccc(CNCc2c(Br)cc(F)c(F)c2N2CCCCC2)n1` [CBK304763], 105%.
In the case of `CCCC(=O)Nc1ccc(OCc2cnccn2)c(C(C)=O)c1` [CBK304766] it was 102%; in that of `O=C(CCCC1CC1)N1CCn2c(nnc2-c2cncc(Br)c2)C1` [CBK304767], 96.4%; in that of `COCC1CN(S(=O)(=O)c2cnc3ccsc3c2)C1` [CBK304768], 72.4%.
Regarding `Cc1ccc(Cl)c(OC(C)C(=O)N2CCOC(CC(=O)O)C2)c1` (stereo not drawn) [CBK304769], the viability at 28.5 h, 10 µM came to 93%.
Turning to `CC1CN(c2cc(CO)c(F)cn2)CC2(CCOC2)O1` (stereo not drawn) [CBK304772], the viability at 28.5 h, 10 µM worked out at 93.8%.
The value for `OCc1cc(N2CCOC3(CCCOC3)C2)ncc1F` (stereo not drawn) [CBK304774] was 94.7%; that for `Cn1nnc2cc(NCC3(CNC(=O)OC(C)(C)C)CC3)ccc21` [CBK304777] was 89.1%; that for `CCN(Cc1cnn(C)c1)S(=O)(=O)c1ccc2c(c1)CCCC(=O)N2` [CBK304782] was 100%.
With `Cn1cc(CN2CCOC(c3nc(C(C)(C)C)cs3)C2)nn1` (stereo not drawn) [CBK304783], the viability at 28.5 h, 10 µM worked out at 90.5%.
Turning to `CCn1cc(CN2CCCN(C(=O)c3cn4ccccc4n3)CC2)cn1` [CBK304784], the viability at 28.5 h, 10 µM stood at 98.3%.
In the case of `CN(Cc1ccc(Br)cc1Cl)C(=O)c1cn[nH]c1C1CCNC1` (stereo not drawn) [CBK304785] it was 93.5%; in that of `Cc1cc(C)cc(OCC(=O)Nc2c(C#N)c(C)nn2C)c1` [CBK304791], 110%; in that of `Cc1ccnc(N2CCOC3(CCCC3)C2)n1` [CBK304794], 93.1%.
On to `Cn1cc(CC2CCN(Cc3ccncc3)C2)cn1` (stereo not drawn) [CBK304796], for which the viability at 28.5 h, 10 µM was 107%.
The value for `Cc1csc(CC(C)n2cc(Cl)cn2)n1` (stereo not drawn) [CBK304797] was 99.8%.
The value for `CCC(CNC(=O)c1ccoc1C)N1CCCC1` (stereo not drawn) [CBK304798] was 88.9%; that for `CCCc1csc(C2CN3CCCC3CO2)n1` (stereo not drawn) [CBK304799] was 88.3%; that for `CCCNC(=O)CN(C)Cc1cn2cccc(C)c2n1` [CBK304800] was 85.2%.
Turning to `CC(=O)Nc1cccc(CN(CCCCO)C2CC2)c1` [CBK304806], the viability at 28.5 h, 10 µM was 91.6%.
In the case of `CC(=O)NCCCSCc1cn2cccc(C)c2n1` [CBK304809] it was 98.5%.
As for `Cc1nc(C(=O)N(CCO)Cc2ccccc2)cs1` [CBK304810], the viability at 28.5 h, 10 µM was 105%.
Regarding `COCC(C)N(C)S(=O)(=O)c1ccc(Cl)nc1` (stereo not drawn) [CBK304813], the viability at 28.5 h, 10 µM came out at 95.2%.
Consider `CCC1CCCCN1C(=O)c1ccc(NC2CC2)nc1` (stereo not drawn) [CBK304815], for which the viability at 28.5 h, 10 µM is 92.2%.
The value for `Cc1cc(C)n(CCCNC(=O)Nc2cccnc2)n1` [CBK304820] was 84.6%; that for `Cc1nnc(CN(CC2CCCO2)C2CCC(C)CC2)o1` (stereo not drawn) [CBK304824] was 94.7%.
As for `Cc1nn(C)c(Cl)c1CN(CCC#N)Cc1ccco1` [CBK304825], the viability at 28.5 h, 10 µM stood at 96.6%.
`Cc1noc(C)c1CN(C)C(C)C(=O)Nc1nccs1` (stereo not drawn) [CBK304826]: the viability at 28.5 h, 10 µM stood at 105%.
Turning to `COc1ccc(CCNC(=O)CN2CCCCC2C)cc1` (stereo not drawn) [CBK304827], the viability at 28.5 h, 10 µM is 94.4%.
In the case of `Cc1nc(CCNCc2c(C)nn(C)c2N(C)C)cs1` [CBK304828] it was 88.3%; in that of `Cc1cnn(C2CCCN(C(=O)Cc3cccs3)C2)c1` (stereo not drawn) [CBK304832], 102%; in that of `CC(=O)Nc1cccc(CN(CCCO)c2ccccc2)c1` [CBK304833], 97.1%.
The value for `Cc1nc(S(=O)(=O)N2CCOC3(CCCC3)C2)cn1C` [CBK304834] was 109%.
The value for `CC1CCC(C(N)=O)CN1c1cc(=O)n2ccccc2n1` (stereo not drawn) [CBK304835] was 104%.
For `CCc1nc2n(n1)CC(NC1CCCc3ccccc31)CC2` (stereo not drawn) [CBK304837], the viability at 28.5 h, 10 µM came out at 95.6%.
As to `CCOC(=O)C1CCCN(Cc2c(C)nn(C)c2Cl)C1` (stereo not drawn) [CBK304838], the viability at 28.5 h, 10 µM came out at 92.4%.
In the case of `CC(C)(C)OC(=O)N1CCC(NCCc2ccccn2)C1` (stereo not drawn) [CBK304839] it was 94.2%; in that of `CC(Oc1cccc(F)c1)C(=O)N(C)Cc1cccnc1` (stereo not drawn) [CBK304841], 95.5%.
The value for `c1cnn(CC2CCCCN2c2ncnc3ccsc23)c1` (stereo not drawn) [CBK304843] was 88.3%; that for `N#Cc1ccccc1C(=O)N(CCO)Cc1ccccc1` [CBK304844] was 89.8%.
The value for `CC(Cn1cccn1)NCC(=O)NC1(C#N)CCCCC1` (stereo not drawn) [CBK304845] was 102%; that for `Cc1cc(C)n(CC2CCCN2CCc2ccccn2)n1` (stereo not drawn) [CBK304846] was 100%; that for `O=C1CCC(CNS(=O)(=O)c2ccccc2Cl)N1` (stereo not drawn) [CBK304850] was 103%.
For the compound `Cc1nnc(CN(C)C2CCN(CC3CCCC3)C2)n1C` (stereo not drawn) [CBK304851], the viability at 28.5 h, 10 µM stood at 106%.
On to `Cc1cc(C)n(CC2CCCCN2Cc2ccccn2)n1` (stereo not drawn) [CBK304853], for which the viability at 28.5 h, 10 µM came out at 86.7%.
Consider `CCC(O)CN1CCCC(c2nc3cc(C)ccc3[nH]2)C1` (stereo not drawn) [CBK304854], for which the viability at 28.5 h, 10 µM is 88.8%.
In the case of `Cc1cc(CNCc2c(C(C)C)nn(C)c2N(C)C)no1` [CBK304855] it was 97%; in that of `Cc1noc(C2(O)CCN(Cc3sccc3Cl)C2)n1` (stereo not drawn) [CBK304863], 97.5%.
The value for `Cc1ccc(C)c(CSC2CCN(C3CCOCC3)C2=O)c1` (stereo not drawn) [CBK304865] was 103%; that for `CCc1noc(C)c1C(=O)N1CCN(C2CCCC2O)CC1` (stereo not drawn) [CBK304869] was 78%; that for `CC1CN(S(=O)(=O)C(C)C)CCC1NCc1ccncc1` (stereo not drawn) [CBK304870] was 89.6%.
In the case of `O=C(Cc1ccn[nH]1)N1CC(O)CC1c1cc(F)ccc1F` (stereo not drawn) [CBK304872] it was 92.3%; in that of `CN(CCc1ccncc1)C(=O)CCc1cc(F)ccc1F` [CBK304876], 90.6%.
On to `O=C(NCCN1CCCCC1)C1CC(=O)N(Cc2ccco2)C1` (stereo not drawn) [CBK304877], for which the viability at 28.5 h, 10 µM is 89.8%.
Turning to `CCOC(=O)c1ccoc1CN1CCCC1c1ccsc1` (stereo not drawn) [CBK304878], the viability at 28.5 h, 10 µM is 86.7%.
Regarding `Cc1c(C(C)NCC(O)COc2ccc(C#N)cc2)cnn1C` (stereo not drawn) [CBK304881], the viability at 28.5 h, 10 µM is 97.5%.
With `Cc1nc(S(=O)(=O)CC2CCCO2)n(CC(C)C)c1C` (stereo not drawn) [CBK304882], the viability at 28.5 h, 10 µM was 116%.
In the case of `Cc1ccc(OCC(=O)Nc2ncn(Cc3cccnc3)n2)cc1` [CBK304888] it was 85%.
The value for `CCc1nc2ccccc2n1CC(=O)N(CCC#N)Cc1cccnc1` [CBK304892] was 87.7%; that for `O=C1NCCN1C1CCN(c2ncnc3ccccc23)CC1` [CBK304896] was 83.1%.
`COc1cc(OC)cc(C(=O)Nc2ncccc2OCCCC#N)c1` [CBK304899]: the viability at 28.5 h, 10 µM worked out at 88.3%.
In the case of `O=C(CN1CCC(NC(=O)c2cccs2)CC1)NCc1ccccc1F` [CBK304901] it was 97.2%; in that of `Cc1cc(C)n(CC2CN(CC(=O)NCc3cccs3)CCO2)n1` (stereo not drawn) [CBK304902], 109%; in that of `CCCn1cc(NC(=O)C2(c3ccccc3)CCOCC2)ccc1=O` [CBK304905], 90.1%.
In the case of `Cn1ncc2c(=O)n(Cc3nc(C(C)(C)C)no3)cnc21` [CBK304906] it was 87.9%.
Take `CC(C)Oc1ncc(C(=O)N(CCC#N)Cc2ccco2)cc1Cl` [CBK304908]: the viability at 28.5 h, 10 µM was 91.6%.
Regarding `Cc1nnc2ccc(N3CCN(Cc4cscn4)CC3)nn12` [CBK304910], the viability at 28.5 h, 10 µM was 101%.
The value for `Cn1cnnc1C1CCN(C(=O)CC2OCCc3sccc32)CC1` (stereo not drawn) [CBK304912] was 90.2%; that for `CN(C)CCn1c(=O)oc2ccc(NC(=O)C3CCCO3)cc21` (stereo not drawn) [CBK304913] was 93.9%; that for `CCc1[nH]ncc1C(=O)N1CCN(c2nccc(OC)n2)CC1` [CBK304915] was 86.4%.
`CCc1noc(C)c1C(=O)N1CCN(C(C#N)C2CCCCC2)CC1` (stereo not drawn) [CBK304916]: the viability at 28.5 h, 10 µM was determined as 88.8%.
As for `CCCN1CCC(NC(=O)Cn2c(C3CC3)nc3ccccc32)CC1` [CBK304917], the viability at 28.5 h, 10 µM turned out to be 89.2%.
The value for `CCN(CC)C(=O)Cc1ccc(NC(=O)NCc2cnn(C)c2)cc1` [CBK304918] was 111%.
The value for `Cn1ccc(CN2CCOC(c3nccs3)C2)cc1=O` (stereo not drawn) [CBK304921] was 88.8%.
Regarding `N#CCCN(Cc1ccco1)C(=O)c1ccc(NC2CC2)nc1` [CBK304922], the viability at 28.5 h, 10 µM was 88.2%.
The value for `Cc1c(C(=O)N2CCn3c(C)nnc3C2)sc2cccc(F)c12` [CBK304923] was 87.5%; that for `Cn1ncc2c(=O)[nH]c(N3CCN(c4cc(C#N)ccn4)CC3)nc21` [CBK304924] was 92.4%; that for `COC(=O)c1ccc(N2CCN(C(C)c3nnc(C)o3)C(C)C2)cc1` (stereo not drawn) [CBK304926] was 108%.
As for `Cc1cc(C)n(CC(=O)N2CCOC(c3ccccc3Cl)C2)n1` (stereo not drawn) [CBK304927], the viability at 28.5 h, 10 µM came to 91.9%.
Turning to `Cc1cc(C)c2c(OCC(=O)N(C)CC(=O)NC(C)C)nn(C)c2n1` [CBK304931], the viability at 28.5 h, 10 µM is 84.1%.
